Experimental data: patent publication US20240173333A1, “Treating Alagille Syndrome (ALGS)” (priority 2022, published 2024)
In brackets after ≈: the same amount, converted by molar mass. Marks after values point to notes of the source that are not given here.

Columns and labels:
[1] = tested on: patients with Alagille syndrome (ALGS); test: Pooled ASSERT and ASSERT-EXT: sleep parameters; format: in vivo, human
Procedure: (§1) In the completed 24-week ASSERT study, patients with ALGS with history of significant pruritus and elevated serum BAs were randomized 2:1 to once-daily odevixibat 120 μg/kg or placebo, respectively. Patients who completed ASSERT could enter ASSERT-EXT, an ongoing, 72-week open-label extension study in which all patients receive odevixibat 120 μg/kg/day. This pooled analysis included all odevixibat-treated patients from ASSERT and/or ASSERT-EXT and spans from patients' first dose of odevixibat to a data cut-off of Sep. 9, 2022. Assessments over up to 36 weeks of treatment included change in observer-reported scratching scores and sleep parameters, as well as levels of serum BAs, autotaxin (a proposed meditator of pruritus), and 7 alpha-hydroxy-4-cholesten-3-one (C4; a marker of bile acid synthesis). Safety evaluations included assessment of alanine aminotransferase (ALT), total bilirubin, and treatment-emergent adverse events (TEAEs).

[2] = tested on: patients with Alagille syndrome (ALGS); test: Pooled ASSERT and ASSERT-EXT: hepatic parameters (ALT, AST, GGT, total bilirubin); format: in vivo, human
Procedure: as §1
Patients who completed ASSERT could enter ASSERT-EXT, an ongoing 72-week extension study in which all patients received odevixibat 120 μg/kg/day. This pooled analysis spans from patients' first dose of odevixibat in ASSERT and/or ASSERT-EXT to a data cutoff at the end of the 72 week period; data from patients who received placebo in ASSERT are also presented for comparison. In both studies, laboratory assessments included measurement of serum alanine transaminase (ALT), Aspartate transaminase (AST), Gamma-glutamyltransferase (GGT), and total bilirubin levels. Caregivers rated patient pruritus using the PRUCISION™ instrument.

[3] = tested on: patients with Alagille syndrome (ALGS); test: ASSERT pruritus responders: serum bile acids
Source text: Treatment with concomitant medications for pruritus was permitted provided the patient was on a stable dosage for ≥4 weeks prior to enrollment that was maintained throughout the study.
Pruritus responders were defined as patients having a ≥1-point decrease in ObsRO scratching score from baseline to weeks 21-24).

[4] = tested on: patients with Alagille syndrome (ALGS); test: Pooled ASSERT and ASSERT-EXT: observer-reported scratching scores; format: in vivo, human; conditions: for mean scratching score: pooled
Procedure: as §1

Solubility in water = format: physicochemical; conditions: pH 7, 37° C.
Source text: It is desirable that the use of organic solvents in the preparation of the formulation is avoided. In some embodiments, water is used as the solvent for the preparation of the formulation. […] Because of this low solubility in water, aqueous suspensions of odevixibat can contain larger agglomerates of odevixibat, which may lead to an uneven distribution of the active pharmaceutical ingredient on the cores, i.e., the cores may contain different amounts of odevixibat, which in turn impacts dose uniformity. Accordingly, in some embodiments, the aqueous suspension of odevixibat is homogeneous. In some embodiments, a homogeneous aqueous suspension of odevixibat is sprayed onto the cores.

## CCCCC1(CCCC)CN(c2ccccc2)c2cc(SC)c(OCC(=O)N[C@@H](C(=O)N[C@@H](CC)C(=O)O)c3ccc(O)cc3)cc2S(=O)(=O)N1 [odevixibat, 1,1-dioxo-3,3-dibutyl-5-phenyl-7-methylthio-8-(N-{(R)-α-[N-((S)-1-carboxypropyl)carbamoyl]-4-hydroxybenzyl}carbamoylmethoxy)-2,3,4,5-tetrahydro-1,2,5-benzothiadiazepine]
[1]; Baseline, n=50
  Days seeing blood due to scratching, Mean (SD) % of Days: 35% (34%)
  Days sleeping with caregiver, Mean (SD) % of Days: 43% (45%)
  Days with help falling asleep, Mean (SD) % of Days: 57% (45%)
  Days with soothing, Mean (SD) % of Days: 64% (43%)
[1]; Weeks 33-36, n=21
  Days seeing blood due to scratching, Mean (SD) % of Days: 5.7% (14%)
  Days sleeping with caregiver, Mean (SD) % of Days: 10% (26%)
  Days with help falling asleep, Mean (SD) % of Days: 10% (18%)
  Days with soothing, Mean (SD) % of Days: 12% (25%)
[1]; n=21
  Days seeing blood due to scratching, Mean (95% CI) Change From Baseline to Week 33-36: −30% (−42%, −17%)***
  Days sleeping with caregiver, Mean (95% CI) Change From Baseline to Week 33-36: −44% (−64%, −24%)***
  Days with help falling asleep, Mean (95% CI) Change From Baseline to Week 33-36: −60% (−78%, −43%)***
  Days with soothing, Mean (95% CI) Change From Baseline to Week 33-36: −59% (−77%, −40%)***
[2]; n=9
  ALT, Mean (SD), Change to week 48: 64 (102) U/L
  AST, Mean (SD), Change to week 48: 37 (72) U/L
  GGT, Mean (SD), Change to week 48: 2 (238) U/L
  Total bilirubin, Mean (SD), Change to week 48: −1 (16) μmol/L
[2]; n=15
  ALT, Mean (SD), Change to week 36: 79 (91) U/L
[2]; n=16
  AST, Mean (SD), Change to week 36: 67 (66) U/L
  GGT, Mean (SD), Change to week 36: 101 (149) U/L
  Total bilirubin, Mean (SD), Change to week 36: 10 (37) μmol/L
[2]; n=37
  ALT, Mean (SD), Change to week 24: 57 (81) U/L
  AST, Mean (SD), Change to week 24: 43 (89) U/L
  GGT, Mean (SD), Change to week 24: 107 (170) U/L
  Total bilirubin, Mean (SD), Change to week 24: −1 (19) μmol/L
[2]; n=42
  AST, Mean (SD), Change to week 12: 36 (67) U/L
[2]; n=43
  ALT, Mean (SD), Change to week 12: 63 (82) U/L
[2]; n=44
  GGT, Mean (SD), Change to week 12: 97 (178) U/L
  Total bilirubin, Mean (SD), Change to week 12: −3 (32) μmol/L
[2]; n=46
  ALT, Mean (SD), Change to week 4: 55 (71) U/L
  AST, Mean (SD), Change to week 4: 40 (67) U/L
  GGT, Mean (SD), Change to week 4: 79 (191) U/L
  Total bilirubin, Mean (SD), Change to week 4: −4 (19) μmol/L
[2]; n=52, before odevixibat
  ALT, Mean (SD), Baseline: 173 (79) U/L
  AST, Mean (SD), Baseline: 164 (76) U/L
  GGT, Mean (SD), Baseline: 441 (329) U/L
  Total bilirubin, Mean (SD), Baseline: 56 (49) μmol/L
[2]; pooled
  concurrent total bilirubin levels in the 4 patients with AST/ALT >3×BL: < 2 times the baseline level
  patients with on-treatment elevations in ALT and total bilirubin that met Hy's law criteria: No patients
[2]; pooled, n=52
  patients with potentially clinically significant elevations in AST and/or ALT to >3 times the baseline level: 4 patients
[3]; average of weeks 20 and 24, n=28
  Bile acids, Week 24 Mean (SE): 136 (19) μmol/L
[3]; baseline to average of weeks 20 and 24
  Bile acids, Mean (SE) Change From Baseline: −107 (23) μmol/L
[3]; n=28
  Bile acids, Baseline Mean (SE): 243 µmol/L
[3]; n=28, listed as Odevixibat
  Bile acids, Baseline Mean (SE): 243 (23) μmol/L
[4]; baseline, before odevixibat
  mean scratching score: 2.6
[4]; last assessment on odevixibat, n=37/49
  patients with a pruritus response (≥1 point reduction from baseline in scratching score): 76%
[4]; weeks 1-4, 120 μg/kg/day
  mean scratching score: 1.7
[4]; weeks 21-24
  mean scratching score: 1.0
[4]; weeks 33-36
  mean scratching score: 0.6
Solubility in water
  solubility: ~30 µg/mL (≈ 40.5 µM)
